From patent US20130303507A1 (Novartis AG, priority 2011, published 2013)
Where “and” joins values, the source holds several entries; their conditions need not be identical. Equal entries are not always repeated.

Legend:
[1] = target: T1, Cdk9/cyclinT1 (Homo sapiens, UniProt P50750); test: Cdk9/cyclinT1 Alpha Screen protocol; type: biochemical; parameters: Full length wild type Cdk9/cyclin T1 is purchased from Invitrogen; purchased Invitrogen PV4131; conditions: individual determinations, read-out: CDK9_cyclinT1_AS2_IC50
Procedure: Cdk9/cyclinT1 Alpha Screen Protocol
Full length wild type Cdk9/cyclin T1 is purchased from Invitrogen, cat#PV4131. […] The cdk7tide peptide substrate, biotin-[…] -OH, is a custom synthesis purchased from the Tufts University Core Facility. The final concentration of cdk7tide peptide substrate is 200 nM. […] Phospho-Rpb1 CTD (ser2/5) substrate antibody is purchased from Cell Signaling Technology. The final concentration of antibody is 0.67 ug/ml. The Alpha Screen Protein A detection kit containing donor and acceptor beads is purchased from PerkinElmer Life Sciences. The final concentration of both donor and acceptor beads is 15 ug/ml. Alpha Screen is used for detection. […] The biotinylated-cdk7tide peptide substrate is bound to the streptavidin coated donor bead. The antibody is bound to the protein A coated acceptor bead. The antibody will bind to the phosphorylated form of the biotinylated-cdk7tide peptide substrate, bringing the donor and acceptor beads into close proximity. Laser irradiation of the donor bead at 680 nm generates a flow of short-lived singlet oxygen molecules. When the donor and acceptor beads are in close proximity, the reactive oxygen generated by the irradiation of the donor beads initiates a luminescence/fluorescence cascade in the acceptor beads. This process leads to a highly amplified signal with output in the 530-620 nm range. Assays are carried out in 50 mM Hepes, pH=7.5, 10 mM MgCl2, 0.1% Bovine Serum Albumin, 0.01% Tween-20, 1 mM Dithiothreitol, 2.5% Dimethyl Sulfoxide. Stop and detection steps are combined using 50 mM Hepes, pH=7.5, 18 mM EDTA, 0.1% Bovine Serum Albumin, 0.01% Tween-20.

[2] = target: T1, Cdk9/cyclinT1; test: Cdk9/cyclinT1 IMAP protocol (fluorescence polarization); conditions: IC-50, CDK9; lower limit of assay 0.0005 micromolar

T1 sequence (P50750 whole entry): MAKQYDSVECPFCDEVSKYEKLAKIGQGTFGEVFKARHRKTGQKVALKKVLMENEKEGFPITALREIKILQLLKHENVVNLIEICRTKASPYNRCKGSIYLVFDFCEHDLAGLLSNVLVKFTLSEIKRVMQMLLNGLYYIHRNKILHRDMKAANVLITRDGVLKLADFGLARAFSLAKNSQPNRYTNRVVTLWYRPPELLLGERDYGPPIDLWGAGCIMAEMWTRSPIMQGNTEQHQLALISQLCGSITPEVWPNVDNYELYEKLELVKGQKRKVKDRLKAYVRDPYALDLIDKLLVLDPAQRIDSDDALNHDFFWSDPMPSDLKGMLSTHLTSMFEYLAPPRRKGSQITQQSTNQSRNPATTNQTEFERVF
T1 sequence (O60563 whole entry partner): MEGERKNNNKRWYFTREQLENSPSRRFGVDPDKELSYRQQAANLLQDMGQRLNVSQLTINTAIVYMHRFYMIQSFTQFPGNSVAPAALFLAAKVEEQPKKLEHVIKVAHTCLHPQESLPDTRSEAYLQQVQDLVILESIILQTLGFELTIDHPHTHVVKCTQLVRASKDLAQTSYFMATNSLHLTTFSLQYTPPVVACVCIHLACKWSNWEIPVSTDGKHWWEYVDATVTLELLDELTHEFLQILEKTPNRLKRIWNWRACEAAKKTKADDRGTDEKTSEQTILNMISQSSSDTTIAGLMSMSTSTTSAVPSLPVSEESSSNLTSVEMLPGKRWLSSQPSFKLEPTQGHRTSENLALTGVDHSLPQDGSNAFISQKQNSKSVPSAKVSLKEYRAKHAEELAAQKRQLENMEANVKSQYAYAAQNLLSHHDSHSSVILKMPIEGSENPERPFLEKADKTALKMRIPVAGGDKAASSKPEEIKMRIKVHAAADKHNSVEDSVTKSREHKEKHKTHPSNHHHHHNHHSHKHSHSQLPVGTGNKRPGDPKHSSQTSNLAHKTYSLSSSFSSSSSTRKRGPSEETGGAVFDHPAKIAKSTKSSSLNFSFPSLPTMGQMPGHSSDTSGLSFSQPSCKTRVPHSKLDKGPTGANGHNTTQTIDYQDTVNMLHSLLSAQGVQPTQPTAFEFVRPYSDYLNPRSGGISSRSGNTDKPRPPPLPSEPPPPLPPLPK

SMILES	IC50 ([1]; neutral species)	IC50 ([1]; TFA salt)	IC50 [2] [nM]
N#CC1(COc2cncc(-c3cc(N[C@H]4CC[C@H](NCCF)CC4)ncc3Cl)n2)CCOCC1 [Compound 550]	0.429 nM	–	–
N#CC1(CNc2cccc(-c3cc(N[C@H]4CC[C@@H](NCC5(O)CC5)CC4)ncc3Cl)n2)CCOCC1 [Compound 573]	6.44 nM	–	–
C[C@](O)(CN[C@H]1CC[C@H](Nc2cc(-c3cccc(NCC4(C#N)CCOCC4)n3)c(Cl)cn2)CC1)C(F)(F)F [Compound 578]	–	0.497 nM and 0.311 nM	–
N#CC1(CNc2cccc(-c3cc(N[C@H]4CC[C@H](N5CC6(COC6)C5)CC4)ncc3Cl)n2)CCOCC1 [Compound 546]	1.42 nM and 1.08 nM and 1.12 nM	–	–
N#CC1(CNc2cccc(-c3cc(N[C@H]4CC[C@H](NCC5(O)CC5)CC4)ncc3Cl)n2)CCOCC1 [Compound 560]	0.481 nM	–	–
C[C@](O)(CN[C@H]1CC[C@H](Nc2cc(-c3cccc(NCC4(C#N)CCOCC4)n3)ccn2)CC1)C(F)(F)F [Compound 579]	–	0.902 nM	–
COC[C@@H](C)N[C@H]1CC[C@H](Nc2cc(-c3cccc(NCC4(C#N)CCOCC4)n3)c(F)cn2)CC1 [Compound 519]	0.235 nM	0.252 nM and 0.218 nM and 0.232 nM and 0.38 nM	–
COCCNC[C@H]1CC[C@H](Nc2cc(-c3cccc(NCC4(C#N)CCOCC4)n3)c(Cl)cn2)CC1 [Compound 540]	0.596 nM and 0.536 nM	–	–
COC[C@H](C)N[C@H]1CC[C@H](Nc2cc(-c3cccc(NCC4(C#N)CC4)n3)c(F)cn2)CC1 [Compound 566]	–	0.787 nM and 0.846 nM	–
CC(O)(CN[C@H]1CC[C@H](Nc2cc(-c3cccc(NCC4(C#N)CCOCC4)n3)c(Cl)cn2)CC1)C(F)(F)F (stereo partly drawn) [Compound 539]	0.537 nM and 0.466 nM	–	–
CC(C)(O)CN[C@H]1CC[C@H](Nc2cc(-c3cccc(NCC4(C#N)CCOCC4)n3)c(F)cn2)CC1 [Compound 522]	0.421 nM	–	–
N#CC1(CNc2cccc(-c3cc(N[C@H]4CC[C@@H](NC5CC(F)(F)C5)CC4)ncc3Cl)n2)CCOCC1 [Compound 564]	9.54 nM	–	–
N#CC1(CNc2cccc(-c3cc(N[C@H]4CC[C@H](NC[C@H](O)CF)CC4)ncc3Cl)n2)CCOCC1 [Compound 542]	–	0.168 nM	–
COCC(C)NC[C@H]1CC[C@H](Nc2cc(-c3cccc(NCC4(C#N)CCOCC4)n3)c(Cl)cn2)CC1 (stereo partly drawn) [Compound 526]	1.19 nM	–	–
COCCN[C@H]1CC[C@H](Nc2cc(-c3ccc(F)c(NCC4(C)CCOCC4)n3)c(Cl)cn2)CC1 [Compound 565]	0.334 nM and 0.311 nM	0.433 nM and 0.226 nM	–
COCCN[C@H]1CC[C@H](Nc2cc(-c3cncc(OCC4(C#N)CCOCC4)n3)c(F)cn2)CC1 [Compound 559]	0.512 nM	0.205 nM	–
COC[C@H](C)N[C@H]1CC[C@@H](Nc2cc(-c3cccc(NCC4(C#N)CCOCC4)n3)c(Cl)cn2)CC1 [Compound 602]	8.1 nM	–	–
N#CC1(CNc2cccc(-c3cc(N[C@H]4CC[C@H](CN5CCOCC5)CC4)ncc3Cl)n2)CCOCC1 [Compound 536]	2.11 nM	1.87 nM	–
CC(C)(C)OCCN(CCOC(C)(C)C)[C@H]1CC[C@H](Nc2cc(-c3cccc(NCC4(C#N)CCOCC4)n3)c(Cl)cn2)CC1 [Compound 518]	–	8.57 nM	–
N#CC1(COc2cncc(-c3cc(N[C@H]4CC[C@H](NC[C@@H](O)C(F)(F)F)CC4)ncc3Cl)n2)CCOCC1 [Compound 575]	0.215 nM	–	–
N#CC1(CNc2cccc(-c3cc(N[C@H]4CC[C@@H](N5CCn6c(nnc6C(F)(F)F)C5)CC4)ncc3Cl)n2)CCOCC1 [Compound 530]	36.9 nM	–	–
COC[C@@H](C)N[C@H]1CC[C@H](Nc2cc(-c3cnc(Cl)c(NCC4(C#N)CCOCC4)n3)c(Cl)cn2)CC1 [Compound 512]	254 nM	–	–
C[C@@](O)(CN[C@H]1CC[C@H](Nc2cc(-c3cccc(NCC4(C#N)CCOCC4)n3)ccn2)CC1)C(F)(F)F [Compound 580]	–	0.979 nM	–
[2H]C([2H])([2H])OC[C@@H](C)N[C@H]1CC[C@H](Nc2cc(-c3cncc(OCC4(C#N)CCOCC4)n3)c(Cl)cn2)CC1 [Compound 599]	< 1 nM	–	–
N#CC1(CNc2cccc(-c3cc(N[C@H]4CC[C@H](NCC(O)CF)CC4)ncc3Cl)n2)CCOCC1 (stereo partly drawn) [Compound 535]	0.398 nM	–	–
COC[C@H](C)N[C@H]1CC[C@H](Nc2cc(-c3cncc(OCC4(C#N)CCOCC4)n3)c(Cl)cn2)CC1 [Compound 586]	1 nM	–	–

SMILES	IC50 ([1]; neutral species)	IC50 ([1]; TFA salt)	IC50 [2] [nM]
CO[C@H]1CCN([C@H]2CC[C@@H](Nc3cc(-c4cccc(NCC5(C#N)CCOCC5)n4)c(Cl)cn3)CC2)C1 [Compound 513]	5.39 nM	26.1 nM	–
COC[C@@H](C)N[C@H]1CC[C@H](Nc2cc(-c3cncc(OCC4(C#N)CC4)n3)c(F)cn2)CC1 [Compound 557]	0.378 nM	–	–
C[C@@](O)(CN[C@H]1CC[C@H](Nc2cc(-c3cncc(OCC4(C#N)CCOCC4)n3)c(Cl)cn2)CC1)C(F)(F)F [Compound 582]	1 nM	–	–
N#CC1(COc2cncc(-c3cc(N[C@H]4CC[C@H](NC[C@H](O)C(F)(F)F)CC4)ncc3Cl)n2)CCOCC1 [Compound 574]	0.448 nM	–	–
N#CC1(CNc2cccc(-c3cc(N[C@H]4CC[C@H](N5CCn6c(nnc6C(F)(F)F)C5)CC4)ncc3Cl)n2)CCOCC1 [Compound 528]	7.73 nM	–	–
N#CC1(CNc2cccc(-c3cc(N[C@H]4CC[C@H](N[C@H]5CCCC[C@@H]5O)CC4)ncc3Cl)n2)CCOCC1 [Compound 523]	–	0.33 nM	–
COC[C@H](C)N[C@H]1CC[C@H](Nc2cc(-c3cccc(NCC4(C#N)CC4)n3)c(F)cn2)CC1 [Compound 587]	1 nM	–	–
N#CC1(COc2cncc(-c3cc(N[C@H]4CC[C@H](NCCC(F)(F)F)CC4)ncc3Cl)n2)CCOCC1 [Compound 562]	0.549 nM	0.321 nM	–
C[C@H](CO)N[C@H]1CC[C@H](Nc2cc(-c3cncc(OCC4(C#N)CCOCC4)n3)c(Cl)cn2)CC1 [Compound 590]	5 nM	–	–
N#CC1(CNc2cccc(-c3cc(N[C@H]4CC[C@H](N[C@@H]5CCCC[C@H]5O)CC4)ncc3Cl)n2)CCOCC1 [Compound 525]	–	0.542 nM	–
C[C@@H](O)CN[C@H]1CC[C@H](Nc2cc(-c3cccc(NCC4(C#N)CCOCC4)n3)c(Cl)cn2)CC1 [Compound 585]	< 1 nM	–	–
COCC(C)N[C@H]1CC[C@@H](Nc2cc(-c3cccc(NCC4(C#N)CCOCC4)n3)c(Cl)cn2)CC1 (stereo partly drawn) [Compound 603]	5.6 nM	–	–
N#CC1(CNc2cccc(-c3cc(N[C@H]4CC[C@H](NCCO)CC4)ncc3Cl)n2)CCOCC1 [Compound 572]	0.301 nM	–	–
N#CC1(COc2cncc(-c3cc(N[C@H]4CC[C@H](N)CC4)ncc3F)n2)CCOCC1 [Compound 534]	–	0.471 nM	–
CO[C@H]1CCN([C@H]2CC[C@H](Nc3cc(-c4cccc(NCC5(C#N)CCOCC5)n4)c(F)cn3)CC2)C1 [Compound 516]	0.835 nM	–	–
C[C@H](N[C@H]1CC[C@H](Nc2cc(-c3cccc(NCC4(C#N)CCOCC4)n3)c(Cl)cn2)CC1)[C@@H](C)O [Compound 531]	0.471 nM	–	–
COC[C@H](C)N[C@H]1CC[C@H](Nc2cc(-c3cncc(OCC4(C#N)CCOCC4)n3)c(F)cn2)CC1 [Compound 589]	1 nM	–	–
CO[C@H]1CCN([C@H]2CC[C@H](Nc3cc(-c4cccc(NCC5(C#N)CCOCC5)n4)c(Cl)cn3)CC2)C1 [Compound 514]	0.553 nM	0.826 nM	–
C[C@H](O)CN[C@H]1CC[C@H](Nc2cc(-c3cccc(NCC4(C#N)CCOCC4)n3)c(Cl)cn2)CC1 [Compound 554]	0.395 nM	–	–
N#CC1(CNc2cccc(-c3cc(N[C@H]4CC[C@H](NCCCO)CC4)ncc3Cl)n2)CCOCC1 [Compound 571]	0.397 nM	–	–
COC[C@@H](C)N[C@H]1CC[C@H](Nc2cc(-c3cncc(OCC4(C#N)CCOCC4)n3)c(Cl)cn2)CC1 [Compound 552]	1.12 nM	0.842 nM and 1.05 nM and 0.384 nM	–
C[C@H](N[C@H]1CC[C@H](Nc2cc(-c3cccc(NCC4(C#N)CCOCC4)n3)c(Cl)cn2)CC1)[C@@H](C)O [Compound 541]	–	0.303 nM	–
COC[C@@H](C)N[C@H]1CC[C@@H](Nc2cc(-c3cccc(NCC4(C#N)CCOCC4)n3)c(Cl)cn2)CC1 [Compound 601]	25 nM	–	–
NC(=O)C1(CNc2cccc(-c3cc(N[C@H]4CC[C@H](N)CC4)ncc3F)n2)CC1 [Compound 487, 1-(((2′-((trans-4-aminocyclohexyl)amino)-5′-fluoro-[2,4′-bipyridin]-6-yl)amino)methyl)cyclopropane-carboxamide]	–	–	< 0.5
COC[C@H](C)N[C@H]1CC[C@H](Nc2cc(-c3cccc(NCC4(O)CCOCC4)n3)c(Cl)cn2)CC1 [Compound 451, 4-(((5′-chloro-2′-((trans-4-(((S)-1-methoxypropan-2-yl)amino)cyclohexyl)amino)-[2,4′-bipyridin]-6-yl)amino)methyl)tetrahydro-2H-pyran-4-ol]	–	–	7
COC[C@]1(O)CC[C@@H](Nc2cc(-c3cccc(NCC4CCOCC4)n3)c(Cl)cn2)CC1 [Compound 447, Cis-4-((5′-chloro-6-(((tetrahydro-2H-pyran-4-yl)methyl)amino)-[2,4′-bipyridin]-2′-yl)amino)-1-(methoxymethyl)cyclohexanol]	–	–	42
